13 cell lines from the supplement of paper PMC10307832 can be followed below.

What all share (assay): relative viability (nuclei count vs DMSO), 5 days (fraction); higher = more cells survive
Compound in the experiment “Selumetinib + Navitoclax”: Cn1cnc2c(F)c(Nc3ccc(Br)cc3Cl)c(C(=O)NOCCO)cc21 [Selumetinib] + CC1(C)CCC(c2ccc(Cl)cc2)=C(CN2CCN(c3ccc(C(=O)NS(=O)(=O)c4ccc(N[C@H](CCN5CCOCC5)CSc5ccccc5)c(S(=O)(=O)C(F)(F)F)c4)cc3)CC2)C1 [Navitoclax] (partner 0.5 µM)
The essentials:
(§1)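 Lung cancer cell lines in 1536-well plates got either a single drug or a fixed anchor-drug dose together with five library-drug doses (not always all listed) in √10 steps, by pin tool, on the day after seeding. Nuclei were counted after 5 days, and relative viability is the treated-to-vehicle ratio of nuclei counts. Values are medians of duplicate plates.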

Compound in the experiment “Venetoclax + Crizotinib”: CC1(C)CCC(CN2CCN(c3ccc(C(=O)NS(=O)(=O)c4ccc(NCC5CCOCC5)c([N+](=O)[O-])c4)c(Oc4cnc5[nH]ccc5c4)c3)CC2)=C(c2ccc(Cl)cc2)C1 [Venetoclax] + C[C@@H](Oc1cc(-c2cnn(C3CCNCC3)c2)cnc1N)c1c(Cl)ccc(F)c1Cl [Crizotinib] (partner 1 µM)
In a few lines:
as §1

Compound in the experiment “Selumetinib + Luminespib”: Cn1cnc2c(F)c(Nc3ccc(Br)cc3Cl)c(C(=O)NOCCO)cc21 [Selumetinib] + CCNC(=O)c1noc(-c2cc(C(C)C)c(O)cc2O)c1-c1ccc(CN2CCOCC2)cc1 [Luminespib] (partner 0.01 µM)
The essentials:
as §1

Compound in the experiment “Selumetinib + Dasatinib”: Cn1cnc2c(F)c(Nc3ccc(Br)cc3Cl)c(C(=O)NOCCO)cc21 [Selumetinib] + Cc1nc(Nc2ncc(C(=O)Nc3c(C)cccc3Cl)s2)cc(N2CCN(CCO)CC2)n1 [Dasatinib] (partner 0.075 µM)
The essentials:
as §1

In the case of LK-2, the relative viability with Selumetinib + Navitoclax (first compound 0.02 µM) was determined as 0.88; with Selumetinib + Navitoclax (first compound 0.06325 µM), 0.896; with Selumetinib + Navitoclax (first compound 0.2 µM) it was 0.838; in the experiment with Selumetinib + Navitoclax (first compound 0.6325 µM) it was 1.06; with Venetoclax + Crizotinib (first compound 0.01 µM) it was 0.192; in the experiment with Venetoclax + Crizotinib (first compound 0.03162 µM), 0.214. Moreover, the relative viability amounted to 0.262 with Venetoclax + Crizotinib (first compound 0.1 µM); 0.248 with Venetoclax + Crizotinib (first compound 0.3162 µM); 0.253 with Venetoclax + Crizotinib (first compound 1 µM); 0.151 in the experiment with Selumetinib + Luminespib (first compound 0.02 µM); 0.136 with Selumetinib + Luminespib (first compound 0.06325 µM); 0.19 in the experiment with Selumetinib + Luminespib (first compound 0.2 µM). Also, the relative viability in the experiment with Selumetinib + Luminespib (first compound 0.6325 µM) came to 0.165; with Selumetinib + Dasatinib (first compound 0.02 µM), 0.281; with Selumetinib + Dasatinib (first compound 0.06325 µM), 0.31; in the experiment with Selumetinib + Dasatinib (first compound 0.2 µM), 0.308; with Selumetinib + Dasatinib (first compound 0.6325 µM), 0.389.

Consider NCI-H358, for which the relative viability with Venetoclax + Crizotinib (first compound 0.01 µM) was 0.577; in the experiment with Venetoclax + Crizotinib (first compound 0.03162 µM), 0.609; in the experiment with Venetoclax + Crizotinib (first compound 0.1 µM), 0.581; in the experiment with Venetoclax + Crizotinib (first compound 0.3162 µM) it was 0.837; with Venetoclax + Crizotinib (first compound 1 µM), 0.63; with Selumetinib + Luminespib (first compound 0.02 µM), 0.284. For the same cell line, the relative viability with Selumetinib + Luminespib (first compound 0.06325 µM) is 0.148; with Selumetinib + Luminespib (first compound 0.2 µM) it was 0.292; with Selumetinib + Luminespib (first compound 0.6325 µM), 0.127; with Selumetinib + Dasatinib (first compound 0.02 µM), 0.136; with Selumetinib + Dasatinib (first compound 0.06325 µM), 0.111; with Selumetinib + Dasatinib (first compound 0.2 µM), 0.118. In addition, in the experiment with Selumetinib + Dasatinib (first compound 0.6325 µM), the relative viability worked out at 0.129.

Consider NCI-H522, for which the relative viability in the experiment with Selumetinib + Luminespib (first compound 0.02 µM) worked out at 1.1; in the experiment with Selumetinib + Luminespib (first compound 0.06325 µM) it was 1.14; with Selumetinib + Luminespib (first compound 0.2 µM) it was 0.887; in the experiment with Selumetinib + Luminespib (first compound 0.6325 µM), 0.759; with Selumetinib + Dasatinib (first compound 0.02 µM), 1.96; with Selumetinib + Dasatinib (first compound 0.06325 µM), 0.849. Besides, the relative viability with Selumetinib + Dasatinib (first compound 0.2 µM) was 0.861; with Selumetinib + Dasatinib (first compound 0.6325 µM), 0.96.

As to NCI-H650, the relative viability in the experiment with Venetoclax + Crizotinib (first compound 0.01 µM) was 0.725; with Venetoclax + Crizotinib (first compound 0.03162 µM), 0.699; with Venetoclax + Crizotinib (first compound 0.3162 µM), 0.701; with Venetoclax + Crizotinib (first compound 1 µM), 0.641; in the experiment with Selumetinib + Luminespib (first compound 0.02 µM), 0.836; in the experiment with Selumetinib + Luminespib (first compound 0.06325 µM) it was 0.677. In addition, the relative viability worked out at 0.73 with Selumetinib + Luminespib (first compound 0.2 µM); 0.651 with Selumetinib + Luminespib (first compound 0.6325 µM); 0.518 with Selumetinib + Dasatinib (first compound 0.02 µM); 0.578 in the experiment with Selumetinib + Dasatinib (first compound 0.06325 µM); 0.65 with Selumetinib + Dasatinib (first compound 0.2 µM); 0.534 in the experiment with Selumetinib + Dasatinib (first compound 0.6325 µM).

On to NCI-H661, for which the relative viability with Venetoclax + Crizotinib (first compound 0.01 µM) is 0.987; with Venetoclax + Crizotinib (first compound 0.03162 µM), 1.09; with Venetoclax + Crizotinib (first compound 0.1 µM), 1.12; with Venetoclax + Crizotinib (first compound 1 µM), 1.05; with Selumetinib + Luminespib (first compound 0.02 µM) it was 0.977; in the experiment with Selumetinib + Luminespib (first compound 0.06325 µM) it was 0.929. For the same cell line, the relative viability is 0.942 with Selumetinib + Luminespib (first compound 0.2 µM); 0.864 with Selumetinib + Luminespib (first compound 0.6325 µM); 0.902 with Selumetinib + Dasatinib (first compound 0.02 µM); 0.821 with Selumetinib + Dasatinib (first compound 0.06325 µM); 0.805 in the experiment with Selumetinib + Dasatinib (first compound 0.2 µM); 0.731 in the experiment with Selumetinib + Dasatinib (first compound 0.6325 µM).

On to NCI-H1299, for which the relative viability stood at 1.02 in the experiment with Selumetinib + Navitoclax (first compound 0.02 µM); 1.09 with Selumetinib + Navitoclax (first compound 0.06325 µM); 1.05 in the experiment with Selumetinib + Navitoclax (first compound 0.2 µM); 0.899 with Selumetinib + Navitoclax (first compound 0.6325 µM); 0.974 with Venetoclax + Crizotinib (first compound 0.01 µM); 0.998 in the experiment with Venetoclax + Crizotinib (first compound 0.03162 µM). For the same cell line, the relative viability came out at 0.937 with Venetoclax + Crizotinib (first compound 0.1 µM), 0.912 with Venetoclax + Crizotinib (first compound 0.3162 µM) and 0.907 with Venetoclax + Crizotinib (first compound 1 µM).

Take NCI-H1395: the relative viability with Selumetinib + Navitoclax (first compound 0.02 µM) stood at 1.08; in the experiment with Selumetinib + Navitoclax (first compound 0.06325 µM), 1.13; with Selumetinib + Navitoclax (first compound 0.2 µM), 1.22; in the experiment with Selumetinib + Navitoclax (first compound 0.6325 µM) it was 1.28; with Selumetinib + Luminespib (first compound 0.02 µM), 0.575; in the experiment with Selumetinib + Luminespib (first compound 0.06325 µM), 0.713. The relative viability was 0.643 in the experiment with Selumetinib + Luminespib (first compound 0.2 µM); 0.694 with Selumetinib + Luminespib (first compound 0.6325 µM); 0.408 in the experiment with Selumetinib + Dasatinib (first compound 0.02 µM); 0.415 with Selumetinib + Dasatinib (first compound 0.06325 µM); 0.432 with Selumetinib + Dasatinib (first compound 0.2 µM); 0.445 with Selumetinib + Dasatinib (first compound 0.6325 µM).

As for NCI-H1563, the relative viability with Venetoclax + Crizotinib (first compound 0.01 µM) was 0.872; in the experiment with Venetoclax + Crizotinib (first compound 0.03162 µM), 0.878; in the experiment with Venetoclax + Crizotinib (first compound 0.1 µM) it was 0.884; in the experiment with Venetoclax + Crizotinib (first compound 0.3162 µM), 0.996; with Venetoclax + Crizotinib (first compound 1 µM), 0.907; with Selumetinib + Luminespib (first compound 0.02 µM), 0.507. The relative viability is 0.499 in the experiment with Selumetinib + Luminespib (first compound 0.06325 µM); 0.527 in the experiment with Selumetinib + Luminespib (first compound 0.2 µM); 0.52 with Selumetinib + Luminespib (first compound 0.6325 µM); 0.514 with Selumetinib + Dasatinib (first compound 0.02 µM); 0.451 in the experiment with Selumetinib + Dasatinib (first compound 0.06325 µM); 0.498 with Selumetinib + Dasatinib (first compound 0.2 µM). The relative viability with Selumetinib + Dasatinib (first compound 0.6325 µM) was determined as 0.528.

NCI-H1623: the relative viability amounted to 0.41 with Selumetinib + Luminespib (first compound 0.02 µM); 0.352 with Selumetinib + Luminespib (first compound 0.06325 µM); 0.394 in the experiment with Selumetinib + Luminespib (first compound 0.2 µM); 0.41 in the experiment with Selumetinib + Luminespib (first compound 0.6325 µM); 0.465 with Selumetinib + Dasatinib (first compound 0.02 µM); 0.454 with Selumetinib + Dasatinib (first compound 0.06325 µM). Also, the relative viability was 0.461 in the experiment with Selumetinib + Dasatinib (first compound 0.2 µM) and 0.505 in the experiment with Selumetinib + Dasatinib (first compound 0.6325 µM).

Regarding NCI-H1703, the relative viability with Selumetinib + Navitoclax (first compound 0.02 µM) was 1.12; with Selumetinib + Navitoclax (first compound 0.06325 µM), 0.875; with Selumetinib + Navitoclax (first compound 0.2 µM) it was 1.29; with Selumetinib + Navitoclax (first compound 0.6325 µM) it was 1.1; in the experiment with Venetoclax + Crizotinib (first compound 0.01 µM), 0.655; with Venetoclax + Crizotinib (first compound 0.03162 µM), 0.635. The figures for the relative viability in the experiment with Venetoclax + Crizotinib (first compound 0.1 µM), in the experiment with Venetoclax + Crizotinib (first compound 0.3162 µM) and in the experiment with Venetoclax + Crizotinib (first compound 1 µM) were 0.634, 1.15 and 0.605, respectively.

As for NCI-H1793, the relative viability with Selumetinib + Navitoclax (first compound 0.02 µM) stood at 0.478; in the experiment with Selumetinib + Navitoclax (first compound 0.06325 µM), 0.304; with Selumetinib + Navitoclax (first compound 0.2 µM), 0.311; with Selumetinib + Navitoclax (first compound 0.6325 µM), 0.281; in the experiment with Selumetinib + Luminespib (first compound 0.02 µM) it was 0.15; with Selumetinib + Luminespib (first compound 0.06325 µM), 0.163. In addition, the relative viability with Selumetinib + Luminespib (first compound 0.2 µM) was found to be 0.154; with Selumetinib + Luminespib (first compound 0.6325 µM), 0.184; in the experiment with Selumetinib + Dasatinib (first compound 0.02 µM) it was 0.393; with Selumetinib + Dasatinib (first compound 0.06325 µM) it was 0.375; with Selumetinib + Dasatinib (first compound 0.2 µM), 0.296; with Selumetinib + Dasatinib (first compound 0.6325 µM) it was 0.294.

For the cell line NCI-H2342, the relative viability with Selumetinib + Luminespib (first compound 0.02 µM) is 0.655; with Selumetinib + Luminespib (first compound 0.06325 µM), 0.64; with Selumetinib + Luminespib (first compound 0.2 µM), 0.677; with Selumetinib + Luminespib (first compound 0.6325 µM), 0.69; in the experiment with Selumetinib + Dasatinib (first compound 0.02 µM) it was 0.362; in the experiment with Selumetinib + Dasatinib (first compound 0.06325 µM) it was 0.32. For the same cell line, the figures for the relative viability with Selumetinib + Dasatinib (first compound 0.2 µM) and in the experiment with Selumetinib + Dasatinib (first compound 0.6325 µM) were 0.37 and 0.293, respectively.

On to SW 900, for which the relative viability with Selumetinib + Luminespib (first compound 0.02 µM) came to 0.19; with Selumetinib + Luminespib (first compound 0.06325 µM), 0.131; in the experiment with Selumetinib + Luminespib (first compound 0.2 µM), 0.159; in the experiment with Selumetinib + Luminespib (first compound 0.6325 µM), 0.155; with Selumetinib + Dasatinib (first compound 0.02 µM) it was 0.709; in the experiment with Selumetinib + Dasatinib (first compound 0.06325 µM) it was 0.491. Besides, the relative viability is 0.541 in the experiment with Selumetinib + Dasatinib (first compound 0.2 µM) and 0.572 in the experiment with Selumetinib + Dasatinib (first compound 0.6325 µM).
